Assay [1] deals with T1, SARS-CoV-2 PLpro (nsp3 1564–1878) (Severe acute respiratory syndrome coronavirus 2, UniProt P0DTD1). The experiment in a line: biochemical. Set-up: FRET-quenched peptide (Pro3) cleavage by PLpro, 10 min pre-incubation, slope over 20 min, normalised to no-compound control. The conditions noted are these: low concentration screen, read-out: % of control remaining.
Assay [2] deals with T1, SARS-CoV-2 PLpro (nsp3 1564–1878). The experiment in a line: biochemical. Further details: FRET-quenched peptide (Pro3) cleavage by PLpro, 10 min pre-incubation, slope over 20 min, normalised to no-compound control. The conditions noted are these: high concentration screen, read-out: % of control remaining.

Where a name gives a salt, the structure may show the parent alone. Read-outs that look alike come from different tables or passages of the source.

`O=C(O)CNC(=O)c1cccc(O)c1` [3-Hydroxyhippuric acid]: the remaining activity at 1.25 µM in assay [1] (Well no.=7219) came out at 102%. Also, in assay [2] (Well no.=7219), the remaining activity at 3.75 µM came to 99.6%.
Regarding `CC(C)(O)CC(=O)O` [3-Hydroxyisovaleric acid], in assay [1] (Well no.=6925), the remaining activity at 1.25 µM stood at 108%. For the same molecule, in assay [2] (Well no.=6925), the remaining activity at 3.75 µM stood at 98.6%.
With `O=C(O)C(O)c1cccc(O)c1` (stereo not drawn) [3-Hydroxymandelic Acid], the remaining activity at 1.25 µM in assay [1] (Well no.=6879) turned out to be 100%. Moreover, in assay [2] (Well no.=6879), the remaining activity at 3.75 µM was determined as 98.2%.
As for `O=C(O)c1ncccc1O` [3-Hydroxypicolinic acid], the remaining activity at 1.25 µM in assay [1] (Well no.=6885) is 68.8%. Further, the remaining activity at 3.75 µM in assay [2] (Well no.=6885) was 92.3%.
On to `O=C(O)Cc1c[nH]c2ccccc12` [3-Indoleacetic acid], for which the remaining activity at 1.25 µM in assay [1] (Well no.=6255) was 108%. Moreover, the remaining activity at 3.75 µM in assay [2] (Well no.=6255) came to 113%.
With `O=C(O)CCc1c[nH]c2ccccc12` [3-Indolepropionic acid], the remaining activity at 1.25 µM in assay [1] (Well no.=6597) stood at 99.7%. In addition, the remaining activity at 3.75 µM in assay [2] (Well no.=6597) came to 102%.
For `N[C@@H](Cc1ccc(O)c(I)c1)C(=O)O` [3-Iodo-L-tyrosine], the remaining activity at 1.25 µM in assay [1] (Well no.=919) was found to be 103%. The remaining activity at 3.75 µM in assay [2] (Well no.=919) was 104%.
`CC(C)Cn1c(=O)n(C)c(=O)c2[nH]cnc21` [3-Isobutyl-1-methylxanthine]: the remaining activity at 1.25 µM in assay [1] (Well no.=773) is 108%. Also, in assay [2] (Well no.=773), the remaining activity at 3.75 µM was found to be 106%.
For the molecule `COc1cccc(C(=O)O)c1` [3-Methoxybenzoic acid], the remaining activity at 1.25 µM in assay [1] (Well no.=6587) is 100%. In addition, in assay [2] (Well no.=6587), the remaining activity at 3.75 µM was found to be 98.4%.
Turning to `COc1cc(CCN)ccc1O` [3-Methoxytyramine], the remaining activity at 1.25 µM in assay [1] (Well no.=6773) was 107%. The remaining activity at 3.75 µM in assay [2] (Well no.=6773) turned out to be 97.4%.
With `CCC(C)C(=O)C(=O)O` (stereo not drawn) [3-Methyl-2-oxovaleric acid], in assay [1] (Well no.=6977), the remaining activity at 1.25 µM was 100%. Besides, in assay [2] (Well no.=6977), the remaining activity at 3.75 µM was found to be 101%.
`Cc1nnc2ccc(-c3cccc(C(F)(F)F)c3)nn12` [3-Methyl-6-(3-[trifluoromethyl]phenyl)-1,2,4-triazolo[4,3-b]pyridazine]: the remaining activity at 1.25 µM in assay [1] (Well no.=828) worked out at 106%. The remaining activity at 3.75 µM in assay [2] (Well no.=828) came out at 105%.
For `Cn1cnc(N)c2ncnc1-2` [3-Methyladenine], the remaining activity at 1.25 µM in assay [1] (Well no.=5079) is 104%; in assay [1] (Well no.=7447), 103%. The remaining activity at 3.75 µM in assay [2] (Well no.=7447) turned out to be 106%.
In the case of `CC(CCC(=O)O)CC(=O)O` (stereo not drawn) [3-Methyladipic acid], in assay [1] (Well no.=6533), the remaining activity at 1.25 µM was found to be 107%. Moreover, in assay [2] (Well no.=6533), the remaining activity at 3.75 µM came to 98.2%.
On to `Cn1c(=N)ccn([C@@H]2O[C@H](CO)[C@@H](O)[C@H]2O)c1=O` [3-Methylcytidine], for which the remaining activity at 1.25 µM in assay [1] (Well no.=7960) is 97.2%. Besides, in assay [2] (Well no.=7960), the remaining activity at 3.75 µM amounted to 98.7%.
As to `CC(CC(=O)O)CC(=O)O` [3-Methylglutaric acid], the remaining activity at 1.25 µM in assay [1] (Well no.=6835) was 100%. Besides, the remaining activity at 3.75 µM in assay [2] (Well no.=6835) was determined as 99.3%.
As for `Cn1c(=O)ccn([C@@H]2O[C@H](CO)[C@@H](O)[C@H]2O)c1=O` [3-Methyluridine], the remaining activity at 1.25 µM stood at 93.2% in assay [1] (Well no.=7067) and 101% in assay [1] (Well no.=7918). The figures for the remaining activity at 3.75 µM in assay [2] (Well no.=7067) and in assay [2] (Well no.=7918) were 91.5% and 101%, respectively.
Turning to `Cn1c(=O)[nH]c(=O)c2[nH]cnc21` [3-Methylxanthine], the remaining activity at 1.25 µM in assay [1] (Well no.=6777) turned out to be 106%. In addition, the remaining activity at 3.75 µM in assay [2] (Well no.=6777) turned out to be 102%.
As to `N=c1c[n+](N2CCOCC2)[n-]o1` [3-Morpholinosydnonimine hydrochloride], the remaining activity at 1.25 µM in assay [1] (Well no.=1041) was 102%. For the same molecule, the remaining activity at 3.75 µM in assay [2] (Well no.=1041) stood at 103%.
As for `O=C(O)CC[N+](=O)[O-]` [3-Nitropropionic acid], the remaining activity at 1.25 µM in assay [1] (Well no.=953) amounted to 100%. Further, in assay [2] (Well no.=953), the remaining activity at 3.75 µM was 99.4%.
As for `O=C(O)CC(=O)CC(=O)O` [3-Oxopentanedioic acid], in assay [1] (Well no.=7499), the remaining activity at 1.25 µM worked out at 97.9%. Also, the remaining activity at 3.75 µM in assay [2] (Well no.=7499) was 99.7%.
Take `NCC#Cc1ccccc1` [3-Phenylpropargylamine hydrochloride]: the remaining activity at 1.25 µM in assay [1] (Well no.=1405) was 103%. Further, in assay [2] (Well no.=1405), the remaining activity at 3.75 µM worked out at 101%.
Regarding `CN1[C@@H]2CC[C@H]1C[C@@H](OC(=O)c1cc(Cl)cc(Cl)c1)C2` [3-Tropanyl-3,5-dichlorobenzoate], the remaining activity at 1.25 µM in assay [1] (Well no.=1278) amounted to 110%. In addition, the remaining activity at 3.75 µM in assay [2] (Well no.=1278) was 108%.
Consider `C[N+]1(C)C2CCC1CC(OC(=O)c1c[nH]c3ccccc13)C2` (stereo not drawn) [3-Tropanylindole-3-carboxylate methiodide], for which the remaining activity at 1.25 µM in assay [1] (Well no.=1520) amounted to 91.9%. The remaining activity at 3.75 µM in assay [2] (Well no.=1520) is 90.6%.
In the case of `CCOC(OCC)P(=O)(O)CCCNCc1ccc(Cl)c(Cl)c1` [3-[(3,4-dichlorobenzyl)amino]propyl(diethoxymethyl)phosphinic acid], the remaining activity at 1.25 µM in assay [1] (Well no.=6020) was found to be 98.7%. Further, in assay [2] (Well no.=6020), the remaining activity at 3.75 µM amounted to 93.6%.
For the molecule `C[C@]12CC[C@@H](O)C[C@@H]1CC[C@@H]1[C@@H]2CC[C@]2(C)[C@@H](C(=O)CO)CC[C@@H]12` [3-alpha,21-Dihydroxy-5-alpha-pregnan-20-one], the remaining activity at 1.25 µM in assay [1] (Well no.=856) came out at 99.8%. In assay [2] (Well no.=856), the remaining activity at 3.75 µM is 104%.
For the molecule `NC(=S)NN=Cc1ncccc1N` [3-amino-2-pyridinecarbaldehyde thiosemicarbazone], the remaining activity at 1.25 µM in assay [1] (Well no.=5964) amounted to 98.3%. Moreover, in assay [2] (Well no.=5964), the remaining activity at 3.75 µM amounted to 97.9%.
With `NC(=O)c1cccc(N)c1` [3-aminobenzamide], in assay [1] (Well no.=199), the remaining activity at 1.25 µM worked out at 101%. In assay [2] (Well no.=199), the remaining activity at 3.75 µM worked out at 98.8%.
`Nc1nccc2c1ncn2[C@@H]1O[C@H](CO)[C@@H](O)[C@H]1O` [3-deazaadenosine]: the remaining activity at 1.25 µM in assay [1] (Well no.=488) worked out at 94.5%. The remaining activity at 3.75 µM in assay [2] (Well no.=488) amounted to 95.2%.
As for `CCCn1c(=O)[nH]c(=O)c2[nH]cnc21` [3-n-Propylxanthine], the remaining activity at 1.25 µM in assay [1] (Well no.=910) amounted to 105%. Moreover, the remaining activity at 3.75 µM in assay [2] (Well no.=910) was determined as 104%.
Turning to `Cc1cc2cc3c(C)cc(=O)oc3c(C)c2o1` [4,5',8-Trimethylpsoralen], the remaining activity at 1.25 µM in assay [1] (Well no.=3420) is 99.6%. Further, the remaining activity at 3.75 µM in assay [2] (Well no.=3420) was 95.9%.
Turning to `CC(=O)CC(=O)CCC(=O)O` [4,6-Dioxoheptanoic acid], the remaining activity at 1.25 µM in assay [1] (Well no.=7261) amounted to 102%. Besides, in assay [2] (Well no.=7261), the remaining activity at 3.75 µM stood at 102%.
Take `O=[N+]([O-])c1ccc(Nc2nc(N3CCOCC3)nc(N3CCOCC3)n2)cc1` [4,6-di(4-morpholinyl)-N-(4-nitrophenyl)-1,3,5-triazin-2-amine]: the remaining activity at 1.25 µM in assay [1] (Well no.=6018) stood at 94.4%. Besides, the remaining activity at 3.75 µM in assay [2] (Well no.=6018) came to 92.3%.

The record behind these values is article PMC8286840, “Identifying SARS-CoV-2 antiviral compounds by screening for small molecule inhibitors of Nsp3 papain-like protease” (Biochemical Journal, 2021).
